Measured values published in patent publication US20260373183A1, “ANTIBIOTIC-RESISTANT ARTIFICIAL NUCLEOSIDE, COMPOSITION AND METHOD” (priority 2022, published 2026).

Legend:
[1] = test system: Pseudomonas aeruginosa strains (VIM-2, SPM-1, IMP-1, OXA-50, ATCC 27853, PA01); experiment: checkerboard MIC experiments, 5-NIdR combined with aztreonam/avibactam; format: cell-based
Description: 5-NIdR alone was not active, displaying individual MICs>512 μg/ml against these strains.

bacterial persisters = experiment: fluorescence and SEM of bacterial persisters treated with aztreonam/avibactam with or without 5-NIdR (FIG. 5); format: cell-based
From the text: First, the artificial nucleoside inhibits TLS activity in response to ROS generated by β-lactams, and this serves to enhance the cytotoxicity of this class of antibiotics. […] These two features represent a novel approach to attack drug-resistant bacteria.

O=[N+]([O-])c1ccc2c(ccn2[C@H]2C[C@H](O)[C@@H](CO)O2)c1 [5-NIdR, 5-nitro-indolyl-2′-deoxynucleoside]
activity of 5-NIdR alone ([1]; 5-NIdR alone, against these strains): not active | fold reduction in the MICs for aztreonam/avibactam ([1]; 5-NIdR combined with aztreonam/avibactam, 5-NIdR concentrations as low as 0.5 μg/ml, all strains listed): > 10 -fold | MIC ([1]; Pseudomonas aeruginosa, ATCC27853, read-out: minimal inhibitory concentrations (MICs)): > 512 µg/mL | lowest 5-NIdR concentration required to achieve a >10-fold reduction in the MICs for aztreonam/avibactam ([1]; combined with β-lactams (aztreonam/avibactam), all Pseudomonas aeruginosa strains listed): 0.5 μg/ml | cell-killing effects in checkerboard analysis ([1]; combining 5-NIdR with aztreonam/avibactam in drug-resistant bacteria (FIG. 3A-F)): synergistic cell-killing effects | inhibitory activity in checkerboard experiments ([1]; variable concentrations of 5-NIdR combined with variable concentrations of aztreonam/avibactam): excellent inhibitory activity | influence on formation of persisters induced by antibiotic treatment (bacterial persisters; 5-NIdR added to aztreonam/avibactam, panel d): does not appear to influence formation of persisters | viability of filamentous persisters (bacterial persisters; 5-NIdR combined with aztreonam/avibactam): adversely affects the viability of filamentous persisters | morphology of persisters (fluorescence and SEM) (bacterial persisters; 5-NIdR combined with aztreonam/avibactam, panels d, e): formation of “ghost” apoptotic saccules which represent non-viable persisters that do not undergo reversion
